Experimental data: patent US20260158008A1, “POLYMORPHS OF THE MESYLATE SALT OF LINAPRAZAN GLURATE” (Cinclus Pharma Holding AB (Publ), priority 2021, published 2026)
Like-named read-outs stand apart in the source and are kept apart here.

How the values were obtained:
[1] = cited from earlier work
[2] = up to 24 hours
Protocol: The solubility of Form A in Fed State Simulated Gastric Fluid (FEDGAS) mid stage, second version of Fasted State Simulated Intestinal Fluid (FaSSIF-V2) and second version of Fed State Simulated Intestinal Fluid (FeSSIF-V2) was studied.
To 90 mL of Milli Q water were added 139 mg of NaOH, 222 mg of maleic acid and 401 mg of NaCl and the resulting mixture was stirred until fully dissolved. The pH was adjusted to 6.5 with 1 M HCl and 1 M NaOH, and made up to 100 mL with Milli Q water. 179 mg of FaSSIF-V2 (Biorelevant, batch V2FAS-1020-A) was mixed with the prepared 100 ml of buffer, stirred until fully dissolved and equilibrated at RT for 1 hour before use.
To 90 ml of Milli Q water were added 327 mg of NaOH, 639 mg of maleic acid and 733 mg of NaCl and the resulting mixture was stirred until fully dissolved. The pH was adjusted to 5.8 with 1 M HCl and 1 M NaOH, and made up to 100 mL with Milli Q water. 976 mg of FeSSIF-V2 (Biorelevant, batch V2FES-1020-A) was mixed with the prepared 100 ml of buffer, stirred until fully dissolved and equilibrated at RT for 1 hour before use. […]
Saturated solutions were prepared in 4 ml vials by adding fixed weights (excess amounts) of Form A to 2 mL of each of the different buffer solutions. […] Concentrations were calculated from a calibration curve based on 7 calibration standards (stock solutions of 100 and 250 μg/mL, and serial dilutions thereof).

[3] = XRPD check of solid form after TGA or DVS; type: physicochemical
Protocol: Analyses were performed on a PanAlytical X'Pert Pro diffractometer equipped with a Cu-anode (45 kV, 40 mA), a Kα-1 Johansson monochromator (1.540598 Å) and a Pixcel detector. The 2-theta range was 2-35°, using a step size of 0.013° and a scan speed of 0.10°/s (“6 minutes scan”) or 0.03°/s (“20 minutes scan”). Slow spinning sample holders were used. The samples were smeared out on zero background wafers of Si, producing a flat powdered surface. The measurements were performed using a programmable incident divergency slit.
Method 1: A few mg of sample was gently charged into open Pt-pans and analysed by weight in a flow of dry nitrogen gas (20 mL/min), to ensure an inert atmosphere, from 25 to 140° C. using a continuous scan speed of 10° C./min, followed by an isothermal step at 140° C. for 60 minutes (ended manually if the drying process was completed before 60 minutes).
(§1) Method 2: A few mg of the substance was added into an Al pan and exposed to stepwise RH changes during two identical consecutive cycles according to 0-10-20-30-40-50-60-70-80-90-80-70-60-50-40-30-20-10-0% RH using open loop mode. The experiments were performed using a gas flow rate of 200 ml/min and at 25° C. The dm/dt criteria applied were 0.001 weight-%/min during a 5-minutes window, with a maximum allowed time of 360 minutes and a minimum allowed time of 10 minutes for all steps.

[4] = Dynamic vapour sorption (DVS) analysis, hygroscopicity / water content; type: physicochemical
Protocol: Analyses were performed on an SMS DVS-1 instrument.
Method 1: A few mg of the substance was added into an Al pan and exposed to stepwise RH changes during two identical consecutive cycles according to 0-10-20-30-40-50-60-70-80-90-80-70-60-50-40-30-20-10-0% RH using open loop mode. The experiments were performed using a gas flow rate of 200 ml/min and at 25° C. The dm/dt criteria applied were 0.001 weight-%/min during a 5-minutes window, with a maximum allowed time of 360 minutes and a minimum allowed time of 10 minutes for all steps, except for the first stage which was set to a 12-hours fix time.
as §1
Method 3: A few mg of the substance was added into an Al pan and exposed to stepwise RH changes during two identical consecutive cycles according to 0-10-20-30-40-50-60-70-80-90-80-70-60-50-40-30-20-10-0% RH using open loop mode. The experiments were performed using a gas flow rate of 200 ml/min and at 25° C. The dm/dt criteria applied were 0.001 weight-%/min during a 5-minutes window, with a maximum allowed time of 360 minutes and a minimum allowed time of 10 minutes for all steps, except for the first stage which was set to a 6-hours fix time.
The hygroscopicity of sample 1 of Form A (obtained from a slurry in 2-propanol) was investigated using method 1. […]
For sample 2 of Form A (obtained from a slurry in acetone), a TGA-dried sample was investigated using method 2. […] In the second cycle, “pure” water absorption and desorption is recorded. […]

gastric acid production [5] = conditions: cited from earlier work
[6] = Plasma concentration after oral administration of linaprazan glurate; type: in vivo, human
gastric acid production [7] = conditions: cited from earlier work; remark: listed apart in the source

Cc1cccc(C)c1CNc1cc(C(=O)NCCOC(=O)CCCC(=O)O)cn2c(C)c(C)nc12 [Form A (free base)]
solubility in water ([1]; pH 1): only slightly soluble | solubility in water ([1]; pH 6.8): practically insoluble

CS(=O)(=O)O.Cc1cccc(C)c1CNc1cc(C(=O)NCCOC(=O)CCCC(=O)O)cn2c(C)c(C)nc12 [Form A]
solubility in FEDGAS relative to FaSSIF-V2 ([2]; FEDGAS mid stage pH 4.5 vs FaSSIF-V2 pH 6.5, 37° C.): about 20 times higher | solubility in FEDGAS relative to FeSSIF-V2 ([2]; FEDGAS mid stage pH 4.5 vs FeSSIF-V2 pH 5.8, 37° C.): about 7 times higher | solid form after the TGA experiment (XRPD) ([3]; after heating 25 to 140° C., TGA method 1): this form remained | solid form after the DVS-analysis (XRPD) ([3]; after two cycles 0-90% RH, 25° C.): this form remained | water uptake with relative humidity ([4]; 0 to 90% RH, 25° C.): increases almost linearly with increasing relative humidity | stability at relative humidity ([4]; relative humidity up to 90%, 25° C.): stable

CS(=O)(=O)O.Cc1cccc(C)c1CNc1cc(C(=O)NCCOC(=O)CCCC(=O)O)cn2c(C)c(C)nc12 [Form B]
water content ([4]; at 80% RH): about 3.4%

Cc1cccc(C)c1CNc1cc(C(=O)NCCOC(=O)CCCC(=O)O)cn2c(C)c(C)nc12 [linaprazan glurate, 5-{2-[({8-[(2,6-dimethylbenzyl)amino]-2,3-dimethylimidazo[1,2-a]pyridine-6-yl}carbonyl)-amino]ethoxy}-5-oxopentanoic acid]
control of gastric acid production compared to linaprazan (gastric acid production [5]; human, in vivo): total control of the gastric acid production for a longer time | half-life in the body compared to linaprazan (gastric acid production [5]; human, in vivo): longer half-life in the body | time for which intragastric acidity is maintained above pH 4 (gastric acid production [5]; single dose, clinical Phase I study): 24 hours | metabolism following absorption into the blood stream ([6]; in vivo): quickly metabolized into linaprazan | plasma concentration ([6]; in vivo): only very low and difficult to determine

Cc1cccc(C)c1CNc1cc(C(=O)NCCO)cn2c(C)c(C)nc12 [linaprazan]
concentration at 22 h ([6]; human, plasma, oral, after 22 hours, estimated from Phase I studies of linaprazan glurate, read-out: minimal plasma concentration (Cmin) of linaprazan required to maintain intra-gastric pH above 4 for 24 hours): ≥ 240 nM | onset of action (gastric acid production [7]; Phase I and II studies): fast onset of action and full effect at first dose | tolerability (gastric acid production [7]; Phase I and II studies): well tolerated | duration of acid inhibition (gastric acid production [7]; in vivo): too short duration of acid inhibition | elimination (gastric acid production [7]; in vivo): quickly eliminated from the body
